In patent US7968697B2, “Hepatitis C virus non-structural NS3/4A fusion gene” (ChronTech Pharma AB, priority 2005, dated 2011):
Where “and” joins values, the source holds several entries; their conditions need not be identical. Equal entries are not always repeated.

Assays:
[1] = test system: NS3/4A-expressing EL-4 cells; test: In vivo challenge with NS3/4A-expressing EL-4 lymphoma cells, prophylactic and therapeutic; details: immunized only once; C57BL/6 mice
Experimental: To confirm that inhibition of tumor growth using the NS3/4A-expressing EL-4 cell line is fully dependent on an NS3/4A-specific immune response a control experiment was performed. Groups of ten C57BL/6 mice were either left nonimmunized, or immunized twice with the coNS3/4A plasmid. Two weeks after the last immunization the mice were challenged with an s.c. injection of 10^6 native EL-4 or NS3/4A-expressing EL-4 cells (NS3/4A-EL-4). An NS3/4A-specific immune response was required for protection, since only the immunized mice were protected against growth of the NS3/4A-EL-4 cell line (FIG. 13). Thus, this H-2^b-restricted model behaves similarly to the SP2/0H-2^d restricted model.
The tumor challenge model was then used to evaluate how effective the different immunogens were in priming a protective immunity against growth of NS3/4A-EL-4 tumor cells in vivo. […]
In vivo challenge of immunized mice with the NS3/4A-expressing SP2/0 myeloma or EL-4 lymphoma cell line was performed according to the method described by Encke et al., supra. […] The kinetics of the tumor growth was determined by measuring the tumor size through the skin at days six to 20. […]
To test the therapeutic effect of the vaccines groups of mice were inoculated with the tumor cells as described above. […] The tumor growth was monitored from day 6 to day 20.

[2] = test system: rNS3; test: EIA antibody titre to rNS3 after immunization with rNS3 with or without ribavirin; type: in vivo, Balb/c mice; details: for Group mean titre (mean ± SD) to rNS3, Week 4 / Group mean titre (mean ± SD) to rNS3, Week 6 / Group mean titre (mean ± SD) to rNS3, Week 8 / Antibody titre to rNS3 at Week 4 / Antibody titre to rNS3 at Week 6 / Antibody titre to rNS3 at Week 8: i.p.; for Endpoint titre of rNS3 IgG at Week 1 / Endpoint titre of rNS3 IgG at Week 2 / Endpoint titre of rNS3 IgG at Week 3 / Antibody titre to rNS3 at Week 4 / Antibody titre to rNS3 at Week 6 / Antibody titre to rNS3 at Week 8: individual mouse
Experimental: In a first set of experiments, groups of three to five Balb/c mice (BK Universal, Uppsala, Sweden) were immunized i.p or s.c. (e.g., at the base of the tail) with 10 μg or 100 μg of recombinant hepatitis C virus non-structural 3 (rNS3) protein. […] Mice were injected with a total volume of 100 μl per injection.
At two and four weeks following i.p. immunization, all mice were bled by retro-orbital sampling. Serum samples were collected and analyzed for the presence of antibodies to rNS3. To determine the antibody titer, an enzyme immunoassay (EIA) was performed. (See e.g., Hultgren et al., J Gen Virol. 79:2381-91 (1998) and Hultgren et al., Clin. Diagn. Lab. Immunol. 4:630-632 (1997)). The antibody levels were recorded as the highest serum dilution giving an optical density at 405 nm more than twice that of non-immunized mice.
At four, six and eight weeks the mice were bled and serum was separated and frozen. After completion of the study, sera were tested for the levels of antibodies to recombinant NS3, as described above. Mean antibody levels to rNS3 were compared between the groups using Student's t-test (parametric analysis) or Mann-Whitney (non-parametric analysis) and the software package StatView 4.5 (Abacus Concepts, Berkely, Calif.). […] The values given represent end point titres to recombinant rNS3.
The levels of antibody to the antigen were then determined by EIA.
A second set of experiments was also performed. […] The mice were bled at week six and rNS3-specific IgG levels were determined by EIA as described previously.

[3] = test system: NS3; test: NS3-specific IgG subclass EIA after rNS3 with or without ribavirin; type: in vivo, mice; details: 0.1 or 1.0 mg ribavirin with 10 μg rNS3 i.p. at weeks 0 and 4; bled at week six
Experimental: The mice were bled at week six and NS3-specific IgG subclasses were determined by EIA as described previously.

[4] = test system: HBsAg; test: EIA antibody titer to HBsAg after Engerix vaccine with or without ribavirin; type: in vivo, mice; details: 1 mg ribavirin mixed with 2 μg Engerix i.p., booster week four, bled week six
Excerpt: (Engerix, SKB). […] A booster containing the same mixture was given on week four and all mice were bled on week six.

[5] = test system: CD4+ T cell; test: In vitro recall assay, lymph node CD4+ T cell proliferation ([3H] thymidine); type: cell-based, mice; details: 100 μg rNS3 mixed with 1 mg ribavirin s.c.; ten days post-immunization; 96 h of culture
Experimental: This assay can be used with any ribavirin derivative or combinations of ribavirin derivatives to determine the extent that a particular vaccine formulation modulates a cellular immune response. […] The mice were sacrificed ten days post-immunization and their lymph nodes were harvested and drained. In vitro recall assays were then performed. (See e.g., Hultgren et al., J Gen Virol. 79:2381-91 (1998) and Hultgren et al., Clin. Diagn. Lab. Immunol. 4:630-632 (1997)). The amount of CD4^+ T cell proliferation was determined at 96 h of culture by the incorporation of [^3H] thymidine.

[6] = 0.1 mg ribavirin mixed with 20 μg rNS3
[7] = 1.0 mg ribavirin mixed with 20 μg rNS3
[8] = 10.0 mg ribavirin mixed with 20 μg rNS3
[9] = 10 mg ribavirin with 10 μg rNS3
[10] = 10 mg ribavirin with 50 μg rNS3

Molecule: GAVQNEVTL (Artificial Peptide, NS3/4A H-2D Binding Peptide) [NS3-derived CTL peptide, ID; NO.: 37]
- protection against growth of NS3/4A-EL-4 tumors [1]: not protected

Molecule: NC(=O)c1ncn([C@@H]2O[C@H](CO)[C@@H](O)[C@H]2O)n1 [ribavirin, 1-β-D-ribofuranosyl-1,2,4-triazole-3-carboxamide]
- Mean endpoint titre of rNS3 IgG at Week 1 [2, 6]: 1110 ± 1484
- Mean endpoint titre of rNS3 IgG at Week 2 [2, 6]: 5060 ± 6921
- antibody titer compared with formulations composed of only rNS3 ([2]; 1 mg of ribavirin and either 10 μg or 100 μg of rNS3, two weeks post-immunization): significantly greater antibody titer
- Mean endpoint titre of rNS3 IgG at Week 1 [2, 7]: 360
- Mean endpoint titre of rNS3 IgG at Week 3 [2, 7]: 5760 ± 6235
- Group mean titre (mean ± SD) to rNS3, Week 4 ([2]; 1 mg ribavirin with 10 μg rNS3): 252 ± 107
- Group mean titre (mean ± SD) to rNS3, Week 6 ([2]; 1 mg ribavirin with 10 μg rNS3): 28071 ± 16195
- Group mean titre (mean ± SD) to rNS3, Week 8 ([2]; 1 mg ribavirin with 10 μg rNS3): 36642 ± 67565
- Group mean titre (mean ± SD) to rNS3, Week 4 ([2]; 1 mg ribavirin with 50 μg rNS3): 150 ± 124
- Group mean titre (mean ± SD) to rNS3, Week 6 ([2]; 1 mg ribavirin with 50 μg rNS3): 52500 ± 55549
- Group mean titre (mean ± SD) to rNS3, Week 8 ([2]; 1 mg ribavirin with 50 μg rNS3): 37500 ± 62105
- Group mean titre (mean ± SD) to rNS3, Week 4 ([2]; 3 mg ribavirin with 10 μg rNS3): 180 ± 128
- Group mean titre (mean ± SD) to rNS3, Week 6 ([2]; 3 mg ribavirin with 10 μg rNS3): 30000 ± 13887
- Group mean titre (mean ± SD) to rNS3, Week 8 ([2]; 3 mg ribavirin with 10 μg rNS3): 22500 ± 34637
- Group mean titre (mean ± SD) to rNS3, Week 4 ([2]; 3 mg ribavirin with 50 μg rNS3): 387 ± 513
- Group mean titre (mean ± SD) to rNS3, Week 6 ([2]; 3 mg ribavirin with 50 μg rNS3): 30000 ± 13887
- Mean endpoint titre of rNS3 IgG at Week 1 [2, 8]: 360
- Mean endpoint titre of rNS3 IgG at Week 2 [2, 8]: 5760 ± 6235
- Mean endpoint titre of rNS3 IgG at Week 3 [2, 8]: 30960 ± 40888
- Group mean titre (mean ± SD) to rNS3, Week 4 [2, 9]: 220 ± 139
- Group mean titre (mean ± SD) to rNS3, Week 4 [2, 10]: 140 ± 124
- Group mean titre (mean ± SD) to rNS3, Week 6 [2, 10]: 10929 ± 11928
- Group mean titre (mean ± SD) to rNS3, Week 8 [2, 10]: 15214 ± 15380
- adjuvant effect on antibody levels, kinetics ([2]; higher doses (1-10 mg) of ribavirin with 20 μg rNS3): enhance antibody levels at week three
- Endpoint titre of rNS3 IgG at Week 1 [2, 6]: 2160 and 60 and <60
- Endpoint titre of rNS3 IgG at Week 2 [2, 6]: 12960 and 60 and 2160
- Endpoint titre of rNS3 IgG at Week 3 [2, 6]: 2160 (2×) and 60
- Endpoint titre of rNS3 IgG at Week 1 [2, 7]: <60 (2×) and 360
- Endpoint titre of rNS3 IgG at Week 2 [2, 7]: 60 and 2160 (2×)
- Endpoint titre of rNS3 IgG at Week 3 [2, 7]: 12960 and 2160 (2×)
- Antibody titre to rNS3 at Week 4 ([2]; 1 mg ribavirin with 10 μg rNS3): 300 (4×) and <60 (3×) and 60
- Antibody titre to rNS3 at Week 6 ([2]; 1 mg ribavirin with 10 μg rNS3): 37500 (5×) and 1500 and 7500
- Antibody titre to rNS3 at Week 8 ([2]; 1 mg ribavirin with 10 μg rNS3): 37500 and 1500 and 187500 and 7500 (4×)
- Antibody titre to rNS3 at Week 4 ([2]; 1 mg ribavirin with 50 μg rNS3): 60 (5×) and 300 (3×)
- Antibody titre to rNS3 at Week 6 ([2]; 1 mg ribavirin with 50 μg rNS3): 7500 and 37500 (6×) and 187500
- Antibody titre to rNS3 at Week 8 ([2]; 1 mg ribavirin with 50 μg rNS3): 7500 (5×) and 187500 and 37500 (2×)
- Antibody titre to rNS3 at Week 4 ([2]; 3 mg ribavirin with 10 μg rNS3): 60 (4×) and 300 (4×)
- Antibody titre to rNS3 at Week 6 ([2]; 3 mg ribavirin with 10 μg rNS3): 37500 (6×) and 7500 (2×)
- Antibody titre to rNS3 at Week 8 ([2]; 3 mg ribavirin with 10 μg rNS3): 7500 (4×) and 37500 (4×)
- Antibody titre to rNS3 at Week 4 ([2]; 3 mg ribavirin with 50 μg rNS3): 60 (3×) and 300 (3×) and 1500
- Antibody titre to rNS3 at Week 6 ([2]; 3 mg ribavirin with 50 μg rNS3): 37500 (6×) and 7500 (2×)
- Antibody titre to rNS3 at Week 8 ([2]; 3 mg ribavirin with 50 μg rNS3): 7500 (5×) and 37500 (3×)
- Endpoint titre of rNS3 IgG at Week 1 [2, 8]: 360 (2×) and <60
- Endpoint titre of rNS3 IgG at Week 2 [2, 8]: 12960 and 2160 (2×)
- Endpoint titre of rNS3 IgG at Week 3 [2, 8]: 77760 and 12960 and 2160
- Antibody titre to rNS3 at Week 4 [2, 9]: 300 (2×) and <60 (5×) and 60
- Antibody titre to rNS3 at Week 6 [2, 9]: 37500 (3×) and 300 (2×) and 7500 (2×)
- Antibody titre to rNS3 at Week 8 [2, 9]: 37500 (3×) and 300 (2×) and 7500 (2×)
- Antibody titre to rNS3 at Week 4 [2, 10]: 300 (2×) and 60 (5×)
- Antibody titre to rNS3 at Week 6 [2, 10]: 7500 (5×) and 37500 (2×) and 1500
- Antibody titre to rNS3 at Week 8 [2, 10]: 7500 (5×) and 37500 (2×) and 1500
- adjuvant effect on antibody levels, kinetics ([2]; low doses (<1 mg) of ribavirin with 20 μg rNS3): enhance antibody levels at week one but not at week three
- effect on the NS3-specific IgG subclass response [3]: does not change the IgG subclass response
- effect on the antibody response to HBsAg vaccine [4]: enhanced the response
- T cell proliferative response compared with 100 μg rNS3 in PBS [5]: much greater T cell proliferative response
